Test results published in paper PMC10517971, “An inverse agonist of orphan receptor GPR61 acts by a G protein-competitive allosteric mechanism” (Nature Communications, 2023).

How the values were obtained:
[1] = target: T1, human GPR101 (Homo sapiens, UniProt Q96P66); experiment: Functional cAMP assay (HTRF), stable CHO TREx human GPR101 cells; type: cell-based; conditions: Supplementary Table 2
T1 construct: expressed in transfected cells
Protocol: (§1) A homogeneous Time-Resolved Fluorescence (HTRF) assay (Perkin Elmer, Dynamic2 kit #) was used to assess receptor basal and inverse agonist activity at human GPR61, GPR62, and GPR101. For routine inverse agonist screening frozen CHO TREx human GPR61, GPR62 and GPR101 cells were used. Cells were thawed, resuspended in complete assay media (DMEM F-12, 10% HI FBS, 100 μg/mL Normocin, 700 μg/mL Hygromycin B and 15 μg/mL Blasticidin) containing 1ug/ml doxycycline, plated in white 384 well plates (Corning, 3570) at a density of 750 cells/well (25 μl/ well) and cultured at 37 °C in an incubator overnight. For studies assessing basal and inverse agonist activity at human GPR61 mutants, CHO-K1 cells were transiently transfected using Fugene6, plated in white 384 well plates (7500 cells/well) and grown overnight at 37 °C, as described for receptor expression studies. […] Data were analyzed using the ratio of fluorescence intensity at 620 and 665 nm for each well, extrapolated from the cAMP standard curve to express data as nM cAMP for each well. […]

[2] = tested on: panel of GPCRs; experiment: GPCR selectivity panel; type: cell-based
Protocol: as §1
7 recepto r activities wer e measured using FL IPR® Calcium Assays. […]
11 measured using a cal cium specific dye. […]
18 change in fluorescence from baseline over a 60 second period (Excitation 470- 495 nm; Emission […]
20 Tetra® instrument to evaluate antagonist activity, with the change in fluorescence from baseline
21 being measured over a 60 second period. […]

T1 sequence (Q96P66 whole entry): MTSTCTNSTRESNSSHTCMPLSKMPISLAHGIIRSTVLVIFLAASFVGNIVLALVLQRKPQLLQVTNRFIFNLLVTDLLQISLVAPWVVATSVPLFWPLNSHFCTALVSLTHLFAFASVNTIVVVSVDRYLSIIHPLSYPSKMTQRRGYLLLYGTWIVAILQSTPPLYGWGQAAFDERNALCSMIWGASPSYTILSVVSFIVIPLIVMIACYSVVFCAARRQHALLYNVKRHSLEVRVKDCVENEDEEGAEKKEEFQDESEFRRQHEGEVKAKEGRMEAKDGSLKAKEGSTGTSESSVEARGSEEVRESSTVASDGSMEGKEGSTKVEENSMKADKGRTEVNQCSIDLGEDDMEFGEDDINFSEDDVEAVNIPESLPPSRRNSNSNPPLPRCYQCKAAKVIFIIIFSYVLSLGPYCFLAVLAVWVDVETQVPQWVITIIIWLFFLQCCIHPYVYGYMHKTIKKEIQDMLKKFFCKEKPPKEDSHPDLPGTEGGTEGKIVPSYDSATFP

CCOc1cc(C)nc(N(CCOC)S(=O)(=O)c2ccc(NCc3c(F)cncc3F)nc2OC)n1 [Compound 1]
IC50 [1]: > 29.7 µM
IC50 ([2]; panel of GPCRs, read-out: off-target IC50 values): > 10 µM
selectivity for GPR61 ([2]; panel of common off-target GPCRs and related receptors GPR62 and GPR101): selective
